Laboratory results reported in US8796466B2, “Hepatitis C virus inhibitors” (Bristol-Myers Squibb Company, priority 2009, dated 2014).
Like-named read-outs stand apart in the source and are kept apart here.

Test system: HCV 1b genotype
Test: HCV Replicon assay (HCV 1b genotype)
Format: cell-based, Hepatitis C virus
Conditions: HCV 1b genotype replicon
Description: An HCV Replicon assay was utilized in the present disclosure, and was prepared, conducted and validated as described in commonly owned PCT/US2006/022197 and in O'Boyle et. al. Antimicrob Agents Chemother. 2005 April; 49(4):1346-53. Assay methods incorporating luciferase reporters have also been used as described (Apath.com).
HCV-neo replicon cells and replicon cells containing mutations in the NS5A region were used to test the currently described family of compounds. The compounds were determined to have more than 10-fold less inhibitory activity on cells containing mutations than wild-type cells. Thus, the compounds of the present disclosure can be effective in inhibiting the function of the HCV NS5A protein and are understood to be as effective in combinations as previously described in application PCT/US2006/022197 and commonly owned WO/04014852. Further, the compounds of the present disclosure can be effective against the HCV 1b genotype. It should also be understood that the compounds of the present disclosure can inhibit multiple genotypes of HCV. […] In one embodiment, compounds of the present disclosure are inhibitory versus 1a, 1b, 2a, 2b, 3a, 4a, and 5a genotypes.

[1] = Hepatitis C virus, Effective 50% inhibitory concentration, read-out: 1b EC50
[2] = Hepatitis C virus, class symbol, read-out: Range (EC50 values against HCV 1b)

Row | SMILES | EC50 [1] [nM] | EC50 [2] [nM] | EC50 (class symbol, read-out: Range (EC50 values against HCV 1b)) [nM]
1 | COC(=O)N[C@H](C(=O)N1CCC[C@H]1c1ncc(-c2cccc(C#Cc3cccc(-c4cnc([C@@H]5CCCN5C(=O)[C@@H](NC(=O)OC)C5CCOCC5)[nH]4)c3)c2)[nH]1)C1CCOCC1 [Example J2, dimethyl (1,2-ethynediylbis(3,1-phenylene-1H-imidazole-4,2-diyl(2S)-2,1-pyrrolidinediyl((1S)-2-oxo-1-(tetrahydro-2H-pyran-4-yl)-2,1-ethanediyl)))biscarbamate] | 0.12 | 0.1 to 0.99 | 
2 | CN(C)[C@@H](C(=O)N1CCC[C@H]1c1ncc(-c2ccc(COc3ccc(-c4cnc([C@@H]5CCCN5C(=O)[C@@H](c5ccccc5)N(C)C)[nH]4)cc3)cc2)[nH]1)c1ccccc1 [OL-7, (1R)-2-((2S)-2-(4-(4-((4-(2-((2S)-1-((2R)-2-(dimethylamino)-2-phenylacetyl)-2-pyrrolidinyl)-1H-imidazol-4-yl)benzyl)oxy)phenyl)-1H-imidazol-2-yl)-1-pyrrolidinyl)-N,N-dimethyl-2-oxo-1-phenylethanamine] |  | 0.002 to 0.099 | 
3 | COC(=O)N[C@H](C(=O)N1C[C@@H](C)C[C@H]1c1nc(Cl)c(-c2ccc(C#Cc3ccc(-c4[nH]c([C@@H]5C[C@H](C)CN5C(=O)[C@@H](NC(=O)OC)C(C)C)nc4Cl)cc3)cc2)[nH]1)C(C)C [Example M12.5] |  |  | 0.002 to 0.099
4 | COC(=O)N[C@H](C(=O)N1CCC[C@H]1c1nc(-c2cccc(C#Cc3cccc(-c4c[nH]c([C@@H]5CCCN5C(=O)[C@@H](NC(=O)OC)C(C)C)n4)c3)c2)c[nH]1)C(C)C [Example J1, methyl ((1S)-1-(((2S)-2-(4-(3-((3-(2-((2S)-1-((2S)-2-((methoxycarbonyl)amino)-3-methylbutanoyl)-2-pyrrolidinyl)-1H-imidazol-4-yl)phenyl)ethynyl)phenyl)-1H-imidazol-2-yl)-1-pyrrolidinyl)carbonyl)-2-methylpropyl)carbamate] |  | 0.002 to 0.099 | 
5 | COC(=O)N[C@H](C(=O)N1C[C@@H](C)C[C@H]1c1nc(-c2ccc(C#Cc3ccc(-c4[nH]c([C@@H]5C[C@H](C)CN5C(=O)[C@@H](NC(=O)OC)C5CCOCC5)nc4Cl)cc3)cc2)c[nH]1)C1CCOCC1 [Example M12.6, methyl ((1S)-2-((2S,4S)-2-(4-(4-((4-(4-chloro-2-((2S,4S)-1-((2S)-2-((methoxycarbonyl)amino)-2-(tetrahydro-2H-pyran-4-yl)acetyl)-4-methyl-2-pyrrolidinyl)-1H-imidazol-5-yl)phenyl)ethynyl)phenyl)-1H-imidazol-2-yl)-4-methyl-1-pyrrolidinyl)-2-oxo-1-(tetrahydro-2H-pyran-4-yl)ethyl)carbamate] |  | 0.002 to 0.099 | 
6 | COC(=O)N[C@@H](C(=O)N1CCC[C@H]1c1nc(-c2ccc(Oc3ccc(-c4c[nH]c([C@@H]5CCCN5C(=O)[C@H](NC(=O)OC)c5ccccc5)n4)cc3)cc2)c[nH]1)c1ccccc1 [OL-3, dimethyl (oxybis(4,1-phenylene-1H-imidazole-4,2-diyl(2S)-2,1-pyrrolidinediyl((1R)-2-oxo-1-phenyl-2,1-ethanediyl)))biscarbamate] |  | 1 to 9.9 | 
7 | COC(=O)N[C@H](C(=O)N1[C@@H]2C[C@@H]2C[C@H]1c1nc(-c2ccc(C#Cc3ccc(-c4c[nH]c([C@@H]5C[C@H]6C[C@H]6N5C(=O)[C@@H](NC(=O)OC)C5CCC5)n4)cc3)cc2)c[nH]1)C1CCC1 [Example M5, dimethyl (1,2-ethynediylbis(4,1-phenylene-1H-imidazole-4,2-diyl(1R,3S,5R)-2-azabicyclo[3.1.0]hexane-3,2-diyl((1S)-1-cyclobutyl-2-oxo-2,1-ethanediyl)))biscarbamate] |  | 0.1 to 0.99 | 
8 | O=C(NC1CCCC1)N[C@@H](C(=O)N1CCC[C@H]1c1nc(-c2ccc(CCc3ccc(-c4cnc([C@@H]5CCCN5C(=O)[C@H](NC(=O)NC5CCCC5)c5ccccc5)[nH]4)cc3)cc2)c[nH]1)c1ccccc1 [OL-13, 1-cyclopentyl-3-((1R)-2-((2S)-2-(4-(4-(2-(4-(2-((2S)-1-((2R)-2-((cyclopentylcarbamoyl)amino)-2-phenylacetyl)-2-pyrrolidinyl)-1H-imidazol-5-yl)phenyl)ethyl)phenyl)-1H-imidazol-2-yl)-1-pyrrolidinyl)-2-oxo-1-phenylethyl)urea] |  | 0.002 to 0.099 | 
9 | COC(=O)N[C@H](C(=O)N1[C@H](c2ncc(-c3ccc(C#Cc4ccc(-c5cnc([C@@H]6C[C@@H]7C[C@@H]7N6C(=O)[C@@H](NC(=O)OC)C6CCOCC6)[nH]5)cc4)cc3)[nH]2)C[C@@H]2C[C@@H]21)C1CCOCC1 [Example N9, dimethyl (1,2-ethynediylbis(4,1-phenylene-1H-imidazole-4,2-diyl(1S,3S,5S)-2-azabicyclo[3.1.0]hexane-3,2-diyl((1S)-2-oxo-1-(tetrahydro-2H-pyran-4-yl)-2,1-ethanediyl)))biscarbamate] |  | 0.002 to 0.099 | 
10 | COC(=O)N[C@H](C(=O)N1CCC[C@H]1c1nc(-c2cccc(C#Cc3cccc(-c4c[nH]c([C@@H]5CCCN5)n4)c3)c2)c[nH]1)C(C)C [Example J1.1, methyl ((1S)-2-methyl-1-(((2S)-2-(4-(3-((3-(2-((2S)-2-pyrrolidinyl)-1H-imidazol-4-yl)phenyl)ethynyl)phenyl)-1H-imidazol-2-yl)-1-pyrrolidinyl)carbonyl)propyl)carbamate] | 339 | 10 to 350 | 
11 | COC(=O)N[C@H](C(=O)N1[C@@H]2C[C@@H]2C[C@H]1c1nc2ccc3cc(C#Cc4ccc5c(ccc6nc([C@@H]7C[C@H]8C[C@H]8N7C(=O)[C@@H](NC(=O)OC)C(C)C)[nH]c65)c4)ccc3c2[nH]1)C(C)C [Example D-10, methyl ((1S)-1-(((1R,3S,5R)-3-(7-((2-((3S)-2-((2S)-2-((methoxycarbonyl)amino)-3-methylbutanoyl)-2-azabicyclo[3.1.0]hex-3-yl)-1H-naphtho[1,2-d]imidazol-7-yl)ethynyl)-1H-naphtho[1,2-d]imidazol-2-yl)-2-azabicyclo[3.1.0]hex-2-yl)carbonyl)-2-methylpropyl)carbamate] |  | 0.002 to 0.099 | 
12 | COC(=O)N[C@H](C(=O)N1[C@@H](C)CC[C@H]1c1nc(-c2ccc(C#Cc3ccc(-c4c[nH]c([C@@H]5CC[C@H](C)N5C(=O)[C@@H](NC(=O)OC)C5CCOCC5)n4)cc3)cc2)c[nH]1)C1CCOCC1 [Example M12, dimethyl (1,2-ethynediylbis(4,1-phenylene-1H-imidazole-4,2-diyl((2S,5S)-5-methyl-2,1-pyrrolidinediyl)((1S)-2-oxo-1-(tetrahydro-2H-pyran-4-yl)-2,1-ethanediyl)))biscarbamate] |  | 0.002 to 0.099 | 
13 | COC(=O)N[C@H](C(=O)N1[C@@H]2C[C@@H]2C[C@H]1c1ncc(-c2cccc(C#Cc3cccc(-c4cnc([C@@H]5C[C@H]6C[C@H]6N5C(=O)[C@@H](NC(=O)OC)C(C)C)[nH]4)c3)c2)[nH]1)C(C)C [Example J3, methyl ((1S)-1-(((1R,3S,5R)-3-(4-(3-((3-(2-((1R,3S,5R)-2-((2S)-2-((methoxycarbonyl)amino)-3-methylbutanoyl)-2-azabicyclo[3.1.0]hex-3-yl)-1H-imidazol-4-yl)phenyl)ethynyl)phenyl)-1H-imidazol-2-yl)-2-azabicyclo[3.1.0]hex-2-yl)carbonyl)-2-methylpropyl)carbamate] |  | 0.002 to 0.099 | 
14 | COC(=O)N[C@H](C(=O)N1CCC[C@H]1c1nc(-c2ccc(C#Cc3ccc(-c4c[nH]c([C@@H]5CCCN5C(=O)[C@@H](NC(=O)OC)C(C)C)n4)cc3)cc2)c[nH]1)C(C)C [Example M1, methyl ((1S)-1-(((2S)-2-(4-(4-((4-(2-((2S)-1-((2S)-2-((methoxycarbonyl)amino)-3-methylbutanoyl)-2-pyrrolidinyl)-1H-imidazol-4-yl)phenyl)ethynyl)phenyl)-1H-imidazol-2-yl)-1-prrolidinyl)carbonyl)-2-methylpropyl)carbamate] |  | 0.002 to 0.099 | 
15 | COC(=O)N[C@@H](C(=O)N1CCC[C@H]1c1nc(-c2ccc(COCc3ccc(-c4c[nH]c([C@@H]5CCCN5C(=O)[C@H](NC(=O)OC)c5ccccc5)n4)cc3)cc2)c[nH]1)c1ccccc1 [OL-16, dimethyl (oxybis(methylene-4,1-phenylene-1H-imidazole-4,2-diyl(2S)-2,1-pyrrolidinediyl((1R)-2-oxo-1-phenyl-2,1-ethanediyl)))biscarbamate] |  | 0.002 to 0.099 | 
16 | CC[C@H](NC(=O)OC)C(=O)N1[C@@H]2C[C@@H]2C[C@H]1c1nc(-c2ccc(C#Cc3ccc(-c4c[nH]c([C@@H]5C[C@H]6C[C@H]6N5C(=O)[C@H](CC)NC(=O)OC)n4)cc3)cc2)c[nH]1 [Example M4, dimethyl (1,2-ethynediylbis(4,1-phenylene-1H-imidazole-4,2-diyl(1R,3S,5R)-2-azabicyclo[3.1.0]hexane-3,2-diyl((2S)-1-oxo-1,2-butanediyl)))biscarbamate] |  | 0.002 to 0.099 | 
17 | COC(=O)N[C@H](C(=O)N1[C@@H]2C[C@@H]2C[C@H]1c1nc(-c2ccc([C@@H]3C[C@H]3c3ccc(-c4c[nH]c([C@@H]5C[C@H]6C[C@H]6N5C(=O)[C@@H](NC(=O)OC)C5CCOCC5)n4)cc3)cc2)c[nH]1)C1CCOCC1 [Example M9.6, dimethyl ((1R,2R)-1,2-cyclopropanediylbis(4,1-phenylene-1H-imidazole-4,2-diyl(1R,3S,5R)-2-azabicyclo[3.1.0]hexane-3,2-diyl((1S)-2-oxo-1-(tetrahydro-2H-pyran-4-yl)-2,1-ethanediyl)))biscarbamate] |  | 0.002 to 0.099 | 
